In the experiment the target is human Cav2.2 (Homo sapiens, UniProt Q00975). As to the kind of experiment: Assessment of calcium channel activity using FLIPR (Ca2+ influx in IMR32 cells). The experiment is classed as cell-based. The conditions noted are these: IMR32 cells endogenously expressing human Cav2.2; 60 minute pre-incubation; 2 μM nifedipine; depolarized with 80 mM KCl, 5 mM CaCl2. Put shortly: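 IMR32 cells were dye-loaded and pre-incubated 60 min with compound (10 μM to 0.1 nM) in 1.3 mM CaCl2 plus 2 μM nifedipine to block L-type channels. Cells were then depolarized with 80 mM KCl while Ca2+ was raised to 5 mM, and FLIPR read the influx. IC50 came from a sigmoidal fit of % inhibition versus the no-inhibitor control.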
Sequence of human Cav2.2 (Q00975 whole entry): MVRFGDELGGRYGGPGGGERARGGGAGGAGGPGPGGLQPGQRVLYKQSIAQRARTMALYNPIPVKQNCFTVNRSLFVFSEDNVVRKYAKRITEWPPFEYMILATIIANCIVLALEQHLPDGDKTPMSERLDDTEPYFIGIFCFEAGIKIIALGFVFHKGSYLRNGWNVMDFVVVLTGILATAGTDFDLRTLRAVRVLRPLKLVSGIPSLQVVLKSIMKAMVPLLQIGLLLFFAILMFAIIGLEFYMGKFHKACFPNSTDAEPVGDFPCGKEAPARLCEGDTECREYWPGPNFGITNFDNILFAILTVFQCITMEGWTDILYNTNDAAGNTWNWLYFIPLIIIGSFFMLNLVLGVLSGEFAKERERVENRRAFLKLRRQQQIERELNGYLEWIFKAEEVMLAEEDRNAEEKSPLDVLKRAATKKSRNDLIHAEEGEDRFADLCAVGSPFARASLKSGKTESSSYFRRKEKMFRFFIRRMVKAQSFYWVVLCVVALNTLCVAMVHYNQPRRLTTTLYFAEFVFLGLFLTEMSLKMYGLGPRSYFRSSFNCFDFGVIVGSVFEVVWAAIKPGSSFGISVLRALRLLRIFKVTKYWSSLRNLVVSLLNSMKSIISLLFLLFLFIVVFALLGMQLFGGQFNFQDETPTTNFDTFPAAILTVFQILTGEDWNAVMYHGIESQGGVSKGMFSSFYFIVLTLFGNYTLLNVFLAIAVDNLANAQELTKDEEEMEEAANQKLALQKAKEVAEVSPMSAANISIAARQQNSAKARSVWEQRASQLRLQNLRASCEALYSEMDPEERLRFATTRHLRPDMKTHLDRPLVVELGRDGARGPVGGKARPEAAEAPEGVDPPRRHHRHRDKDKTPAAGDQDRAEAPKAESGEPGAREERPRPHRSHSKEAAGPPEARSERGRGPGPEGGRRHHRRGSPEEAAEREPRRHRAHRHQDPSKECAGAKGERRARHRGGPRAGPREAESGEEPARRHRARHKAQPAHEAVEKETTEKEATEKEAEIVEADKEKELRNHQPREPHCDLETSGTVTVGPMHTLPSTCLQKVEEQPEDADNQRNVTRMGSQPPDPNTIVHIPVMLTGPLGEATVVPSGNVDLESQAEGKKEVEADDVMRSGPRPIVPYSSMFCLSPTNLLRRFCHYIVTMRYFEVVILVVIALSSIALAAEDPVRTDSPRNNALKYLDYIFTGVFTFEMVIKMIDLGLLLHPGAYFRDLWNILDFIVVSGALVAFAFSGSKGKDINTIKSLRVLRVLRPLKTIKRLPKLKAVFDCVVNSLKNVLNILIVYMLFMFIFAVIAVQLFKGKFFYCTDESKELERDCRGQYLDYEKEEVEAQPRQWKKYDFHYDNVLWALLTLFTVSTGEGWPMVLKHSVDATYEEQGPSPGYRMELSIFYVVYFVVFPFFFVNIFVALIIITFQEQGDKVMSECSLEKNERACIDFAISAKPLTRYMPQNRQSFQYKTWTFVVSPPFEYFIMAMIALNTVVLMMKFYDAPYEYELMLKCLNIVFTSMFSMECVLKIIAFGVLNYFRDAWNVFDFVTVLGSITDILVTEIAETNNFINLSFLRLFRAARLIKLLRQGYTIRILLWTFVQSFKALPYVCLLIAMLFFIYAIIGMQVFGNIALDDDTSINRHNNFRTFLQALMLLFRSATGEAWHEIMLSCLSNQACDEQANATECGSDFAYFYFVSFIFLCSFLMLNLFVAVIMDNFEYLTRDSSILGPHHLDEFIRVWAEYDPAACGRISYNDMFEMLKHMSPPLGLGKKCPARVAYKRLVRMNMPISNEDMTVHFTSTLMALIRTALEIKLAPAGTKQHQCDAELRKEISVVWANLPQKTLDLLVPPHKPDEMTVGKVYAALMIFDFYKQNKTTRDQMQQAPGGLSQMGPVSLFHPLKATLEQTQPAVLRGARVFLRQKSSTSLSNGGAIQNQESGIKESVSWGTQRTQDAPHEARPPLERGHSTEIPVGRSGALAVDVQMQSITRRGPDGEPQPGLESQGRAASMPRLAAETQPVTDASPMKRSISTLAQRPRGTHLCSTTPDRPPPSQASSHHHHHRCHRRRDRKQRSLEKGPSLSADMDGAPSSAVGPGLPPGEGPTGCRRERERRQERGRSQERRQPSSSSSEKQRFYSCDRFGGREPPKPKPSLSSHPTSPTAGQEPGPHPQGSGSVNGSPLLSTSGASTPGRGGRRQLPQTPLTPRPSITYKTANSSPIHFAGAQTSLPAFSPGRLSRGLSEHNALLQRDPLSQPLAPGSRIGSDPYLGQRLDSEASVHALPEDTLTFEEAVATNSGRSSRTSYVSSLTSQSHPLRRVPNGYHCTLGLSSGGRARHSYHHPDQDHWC
Sequence of human Cav2.2 (P54289 25-951 partner limits assumed): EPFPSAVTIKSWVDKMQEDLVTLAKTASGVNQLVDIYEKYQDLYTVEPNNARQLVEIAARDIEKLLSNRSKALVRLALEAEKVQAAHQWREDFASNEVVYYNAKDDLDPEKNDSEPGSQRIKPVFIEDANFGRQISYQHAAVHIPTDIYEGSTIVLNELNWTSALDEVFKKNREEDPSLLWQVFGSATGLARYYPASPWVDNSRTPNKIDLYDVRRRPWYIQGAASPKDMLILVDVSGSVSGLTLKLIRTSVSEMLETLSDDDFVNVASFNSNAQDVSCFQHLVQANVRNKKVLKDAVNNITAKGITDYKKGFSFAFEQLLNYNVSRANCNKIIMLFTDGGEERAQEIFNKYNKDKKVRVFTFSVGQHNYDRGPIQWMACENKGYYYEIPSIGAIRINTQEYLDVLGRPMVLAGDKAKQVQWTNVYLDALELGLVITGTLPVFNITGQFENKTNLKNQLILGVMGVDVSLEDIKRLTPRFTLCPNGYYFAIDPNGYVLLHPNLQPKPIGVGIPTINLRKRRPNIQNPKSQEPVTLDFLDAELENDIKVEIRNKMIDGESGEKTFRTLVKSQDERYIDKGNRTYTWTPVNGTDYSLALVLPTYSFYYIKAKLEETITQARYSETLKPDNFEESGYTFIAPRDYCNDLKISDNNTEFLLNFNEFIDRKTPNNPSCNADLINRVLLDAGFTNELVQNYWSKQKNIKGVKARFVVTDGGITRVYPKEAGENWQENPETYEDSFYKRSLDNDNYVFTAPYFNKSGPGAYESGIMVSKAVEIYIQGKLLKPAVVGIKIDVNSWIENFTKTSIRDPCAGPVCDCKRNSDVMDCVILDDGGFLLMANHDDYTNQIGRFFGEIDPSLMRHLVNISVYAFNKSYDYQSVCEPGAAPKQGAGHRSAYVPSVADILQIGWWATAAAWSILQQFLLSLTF
Sequence of human Cav2.2 (P54289 952-1103 partner limits assumed): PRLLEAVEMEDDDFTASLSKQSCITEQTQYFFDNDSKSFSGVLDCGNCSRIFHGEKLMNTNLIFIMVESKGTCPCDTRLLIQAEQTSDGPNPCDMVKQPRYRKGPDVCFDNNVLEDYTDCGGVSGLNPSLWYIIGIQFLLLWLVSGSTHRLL
Sequence of human Cav2.2 (P54284 whole entry partner): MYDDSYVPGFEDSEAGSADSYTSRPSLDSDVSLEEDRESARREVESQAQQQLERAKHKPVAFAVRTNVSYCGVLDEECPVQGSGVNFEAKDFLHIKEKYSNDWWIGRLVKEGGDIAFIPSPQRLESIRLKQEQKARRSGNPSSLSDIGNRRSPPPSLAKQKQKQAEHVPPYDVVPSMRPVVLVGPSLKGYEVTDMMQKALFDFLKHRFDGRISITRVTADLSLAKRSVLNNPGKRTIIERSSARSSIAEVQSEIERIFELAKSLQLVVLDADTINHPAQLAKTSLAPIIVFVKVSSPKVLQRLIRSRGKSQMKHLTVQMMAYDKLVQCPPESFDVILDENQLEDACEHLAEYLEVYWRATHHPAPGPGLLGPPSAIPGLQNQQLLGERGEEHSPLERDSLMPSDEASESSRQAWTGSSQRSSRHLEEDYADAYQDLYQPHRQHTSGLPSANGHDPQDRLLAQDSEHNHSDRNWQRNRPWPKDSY

Results on 34 molecules are retold here after patent US8044069B2, “Compounds as calcium channel blockers” (Abbott Laboratories, priority 2008, dated 2011).

For the molecule `O=C1N(S(=O)(=O)c2cccc(C(F)(F)F)c2)CCC1(c1ccccc1)c1ccccc1` [Example 144, 3,3-diphenyl-1-{[3-(trifluoromethyl)phenyl]sulfonyl}pyrrolidin-2-one], the IC50 – broadly, the concentration at which inhibition is half-maximal – was 5480 nM. With `O=C1N(Cc2nc(-c3ccncc3)no2)CCC1(c1ccccc1)c1ccccc1` [Example 222, 3,3-diphenyl-1-[(3-pyridin-4-yl-1,2,4-oxadiazol-5-yl)methyl]pyrrolidin-2-one], the concentration for half-maximal inhibition (IC50) turned out to be 5430 nM. With `COc1cc(CN2CCN(CCN3CCC(c4ccc(F)cc4)(c4ccc(F)cc4)C3=O)CC2)cc(OC)c1OC` [Example 109, 3,3-bis(4-fluorophenyl)-1-{2-[4-(3,4,5-trimethoxybenzyl)piperazin-1-yl]ethyl}pyrrolidin-2-one], the concentration for half-maximal inhibition (IC50) is 1760 nM. Consider `O=C1N(CCN2CCN(c3cccc(C(F)(F)F)c3)CC2)CCC1(c1ccc(F)cc1)c1ccc(F)cc1` [Example 111, 3,3-bis(4-fluorophenyl)-1-(2-{4-[3-(trifluoromethyl)phenyl]piperazin-1-yl}ethyl)pyrrolidin-2-one], for which the IC50 came to 3940 nM.

Regarding `O=C(CN1CCCC(c2ccccc2)(c2ccccc2)C1=O)NC1CN(Cc2cccc(C(F)(F)F)c2F)C1` [Example 201, N-{1-[2-fluoro-3-(trifluoromethyl)benzyl]azetidin-3-yl}-2-(2-oxo-3,3-diphenylpiperidin-1-yl)acetamide], the IC50 turned out to be 860 nM. To `O=C(CN1CCC(c2ccccc2)(c2ccccc2)C1=O)N1CCN(C(c2ccccc2)c2ccc(F)cc2)CC1` (stereo not shown) [Example 46, 1-(2-{4-[(4-fluorophenyl)(phenyl)methyl]piperazin-1-yl}-2-oxoethyl)-3,3-diphenylpyrrolidin-2-one] belongs 450 nM; to `O=C(CN1CCC(c2ccc(F)cc2)(c2ccc(F)cc2)C1=O)N1CCC(c2ccc(F)cc2)(c2ccc(F)cc2)C1` [Example 204, 1-{2-[3,3-bis(4-fluorophenyl)pyrrolidin-1-yl]-2-oxoethyl}-3,3-bis(4-fluorophenyl)pyrrolidin-2-one], 3040 nM. Regarding `O=C(CN1CCC(c2ccccc2)(c2ccccc2)C1=O)N1CCC(c2ccccc2)C1` (stereo not shown) [Example 21, 1-[2-oxo-2-(3-phenylpyrrolidin-1-yl)ethyl]-3,3-diphenylpyrrolidin-2-one], the IC50 was determined as 1830 nM. For the molecule `O=C(CN1CCC(c2ccccc2)(c2ccccc2)C1=O)NC(c1ccccc1)C1CC1` (stereo not shown) [Example 9, N-[cyclopropyl(phenyl)methyl]-2-(2-oxo-3,3-diphenylpyrrolidin-1-yl)acetamide], the IC50 was 2100 nM. Consider `O=C(CN1CCCC(c2ccccc2)(c2ccccc2)C1=O)N1CCC(=C(c2ccc(F)cc2)c2ccc(F)cc2)CC1` [Example 171, 1-(2-{4-[bis(4-fluorophenyl)methylene]piperidin-1-yl}-2-oxoethyl)-3,3-diphenylpiperidin-2-one], for which the IC50 was found to be 2450 nM. As for `COc1ccc(OC2CCN(C(=O)CN3CCCC(c4ccccc4)(c4ccccc4)C3=O)CC2)cc1` [Example 161, 1-{2-[4-(4-methoxyphenoxy)piperidin-1-yl]-2-oxoethyl}-3,3-diphenylpiperidin-2-one], the IC50 came to 5740 nM. For `O=C1N(CCN2CCN(c3cccc(C(F)(F)F)c3)CC2)CCCC1(c1ccc(F)cc1)c1ccc(F)cc1` [Example 139, 3,3-bis(4-fluorophenyl)-1-(2-{4-[3-(trifluoromethyl)phenyl]piperazin-1-yl}ethyl)piperidin-2-one], the IC50 came to 4770 nM. With `O=C(CN1CCC(c2ccccc2)(c2ccccc2)C1=O)N1CCOC(c2ccccc2)(c2ccccc2)C1` [Example 23, 1-[2-(2,2-diphenylmorpholin-4-yl)-2-oxoethyl]-3,3-diphenylpyrrolidin-2-one] the figure was 690 nM. To `O=C(CN1CCCC(c2ccc(F)cc2)(c2ccc(F)cc2)C1=O)N1CCN(Cc2cccc(C(F)(F)F)c2)CC1` [Example 175, 3,3-bis(4-fluorophenyl)-1-(2-oxo-2-{4-[3-(trifluoromethyl)benzyl]piperazin-1-yl}ethyl)piperidin-2-one] belongs 1250 nM. On to `O=C1N(CCCN2CCN(c3cccc(C(F)(F)F)c3)CC2)CCCC1(c1ccc(F)cc1)c1ccc(F)cc1` [Example 142, 3,3-bis(4-fluorophenyl)-1-(3-{4-[3-(trifluoromethyl)phenyl]piperazin-1-yl}propyl)piperidin-2-one], for which the concentration for half-maximal inhibition (IC50) came out at 1230 nM. To `CC(CNC(=O)CN1CCC(c2ccccc2)(c2ccccc2)C1=O)(c1ccccc1)c1ccccc1` [Example 16, N-(2,2-diphenylpropyl)-2-(2-oxo-3,3-diphenylpyrrolidin-1-yl)acetamide] belongs 900 nM; to `CC(c1cccc(C(F)(F)F)c1)N1CCN(C(=O)CN2CCC(c3ccccc3)(c3ccccc3)C2=O)CC1` (stereo not shown) [Example 44, 1-[2-oxo-2-(4-{1-[3-(trifluoromethyl)phenyl]ethyl}piperazin-1-yl)ethyl]-3,3-diphenylpyrrolidin-2-one], 770 nM.

Consider `O=C(CN1CCC(c2ccccc2)(c2ccccc2)C1=O)NCc1nccs1` [Example 3, 2-(2-oxo-3,3-diphenylpyrrolidin-1-yl)-N-(1,3-thiazol-2-ylmethyl)acetamide], for which the concentration for half-maximal inhibition (IC50) was 13400 nM. In the case of `COc1ccc(C2(c3ccc(OC)cc3)CCCN(CCCN(C)Cc3cc(OC)cc(OC)c3)C2=O)cc1` [Example 127, 1-{3-[(3,5-dimethoxybenzyl)(methyl)amino]propyl}-3,3-bis(4-methoxyphenyl)piperidin-2-one], the IC50 was determined as 1530 nM. With `O=C(CN1CCC(c2ccccc2)(c2ccccc2)C1=O)N[C@@H]1CC[C@H]2CN(Cc3cccc(C(F)(F)F)c3)C[C@H]21` (relative stereo) [Example 57, 2-(2-oxo-3,3-diphenylpyrrolidin-1-yl)-N-{(3aS*,4R*,6aR*)-2-[3-(trifluoromethyl)benzyl]octahydrocyclopenta[c]pyrrol-4-yl}acetamide], the IC50 came to 490 nM.

As to `CN(CCN1CCC(c2ccc(F)cc2)(c2ccc(F)cc2)C1=O)CC(O)COc1cccc2ncccc12` (stereo not shown) [Example 108, 3,3-bis(4-fluorophenyl)-1-{2-[[2-hydroxy-3-(quinolin-5-yloxy)propyl](methyl)amino]ethyl}pyrrolidin-2-one], the IC50 stood at 1000 nM.

`CC1(C)C(=O)N(CCN2CCC(c3ccccc3)(c3ccccc3)C2=O)CCN1Cc1cccs1` [Example 65, 3,3-dimethyl-1-[2-(2-oxo-3,3-diphenylpyrrolidin-1-yl)ethyl]-4-(thien-2-ylmethyl)piperazin-2-one]: the IC50 turned out to be 1040 nM.

For the molecule `O=C(CN1CCC(c2ccccc2)(c2ccccc2)C1=O)N1CCN(Cc2ccc(Cl)cc2Cl)CC1` [Example 43, 1-{2-[4-(2,4-dichlorobenzyl)piperazin-1-yl]-2-oxoethyl}-3,3-diphenylpyrrolidin-2-one], the IC50 was found to be 520 nM. To `O=C(CN1CCCC(c2ccccc2)(c2ccccc2)C1=O)N1CCOC(c2ccccc2)(c2ccccc2)C1` [Example 69, 1-[2-(2,2-diphenylmorpholin-4-yl)-2-oxoethyl]-3,3-diphenylpiperidin-2-one] belongs 6050 nM; to `O=C1N(Cc2nc(-c3ccc(C(F)(F)F)cc3)no2)CCCC1(c1ccccc1)c1ccccc1` [Example 99, 3,3-diphenyl-1-({3-[4-(trifluoromethyl)phenyl]-1,2,4-oxadiazol-5-yl}methyl)piperidin-2-one], 8650 nM. For `O=C(CN1CCC(c2ccc(Cl)c(Cl)c2)C1=O)N1Cc2ccc(F)cc2C1` (stereo not shown) [Example 270, 3-(3,4-dichlorophenyl)-1-[2-(5-fluoro-1,3-dihydro-2H-isoindol-2-yl)-2-oxoethyl]pyrrolidin-2-one], the half-maximal inhibitory concentration (IC50) was 5250 nM. Consider `O=C(CN1CCC(c2ccccc2)(c2ccccc2)C1=O)N1CCC[C@@H]2CN(C(c3ccccc3)c3ccccc3)C[C@@H]21` [Example 51, 1-{2-[(4aR,7aR)-6-benzhydryloctahydro-1H-pyrrolo[3,4-b]pyridin-1-yl]-2-oxoethyl}-3,3-diphenylpyrrolidin-2-one], for which the IC50 was 2290 nM. As to `COc1ccc(C2(c3ccc(OC)cc3)CCCN(CCCN(C)CCCOc3cc(OC)cc(OC)c3)C2=O)cc1` [Example 116, 1-{3-[[3-(3,5-dimethoxyphenoxy)propyl](methyl)amino]propyl}-3,3-bis(4-methoxyphenyl)piperidin-2-one], the 50% inhibitory concentration (IC50) was 2010 nM. Regarding `COc1cc(CN2CCN(CCCN3CCC(c4ccc(F)cc4)(c4ccc(F)cc4)C3=O)CC2)cc(OC)c1OC` [Example 110, 3,3-bis(4-fluorophenyl)-1-{3-[4-(3,4,5-trimethoxybenzyl)piperazin-1-yl]propyl}pyrrolidin-2-one], the IC50 was 1470 nM. Consider `O=C1N(Cc2nc(-c3ccc(Cl)nc3)no2)CCC1(c1ccccc1)c1ccccc1` [Example 214, 1-{[3-(6-chloropyridin-3-yl)-1,2,4-oxadiazol-5-yl]methyl}-3,3-diphenylpyrrolidin-2-one], for which the IC50 turned out to be 2780 nM. Regarding `O=C1N(Cc2nc(Cc3ccc(Cl)cc3)no2)CCCC1(c1ccccc1)c1ccccc1` [Example 207, 1-{[3-(4-chlorobenzyl)-1,2,4-oxadiazol-5-yl]methyl}-3,3-diphenylpiperidin-2-one], the concentration for half-maximal inhibition (IC50) was 5030 nM.

As for `Cc1ccc(-c2noc(CN3CCC(c4ccccc4)(c4ccccc4)C3=O)n2)cc1` [Example 195, 1-{[3-(4-methylphenyl)-1,2,4-oxadiazol-5-yl]methyl}-3,3-diphenylpyrrolidin-2-one], the IC50 came to 3570 nM.

With `O=C1N(S(=O)(=O)c2ccc(C(F)(F)F)cc2)CCC1(c1ccccc1)c1ccccc1` [Example 149, 3,3-diphenyl-1-{[4-(trifluoromethyl)phenyl]sulfonyl}pyrrolidin-2-one], the IC50 turned out to be 8130 nM. To `O=C(CN1CCC(c2ccccc2)(c2ccccc2)C1=O)NCCc1cccc(C(F)(F)F)c1` [Example 10, 2-(2-oxo-3,3-diphenylpyrrolidin-1-yl)-N-{2-[3-(trifluoromethyl)phenyl]ethyl}acetamide] belongs 3870 nM.
